Assay: recombinant UMI read abundance after kanamycin selection (control-corrected) (log10(CPM+1)); higher = more efficient recombination; extreme values may be limits of the assay; sequences stand for … in AGTGCAGAGAAAATCGGCCAGTTTTCTCTGCCTGCAGTCCGCATGCCGTGGGACCCCTTGGGTTCTAACCTGTTGCCTAGATTTATGCAGCGGACTGCCTTTCTCCCAAAGTGATAAACCGG…AGGTTGGTTTCACT; site = the 11-nt donor
Method in brief: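 Values are reported as log10(CPM+1), obtained by converting sequencing counts to CPM, averaging replicates and scaling by control-derived factors. The counts came from recombinant UMIs amplified by PCR across the donor–target junction. These UMIs came from a pooled Escherichia coli screen of donor and donor-binding-loop pairs for the IS621 bridge recombinase, plated with IPTG (0.07 mM) plus kanamycin or left unselected, in two replicates each.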
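Further: IS621 bridge recombinase in Escherichia coli cells against a fixed T5 target plasmid.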

| Sequence | recombinant UMI read abundance (log10) |
| --- | --- |
| ATAGGGCCATGGACCGGTTTTCCCGGTAATCCGTATTTGAC (site ATATGGCCTGT) | 0 |
| ATAGGTCCATGGACCGGTTTTCCCGGTAATCCGTATTTGTT (site ATAGGTCCTAA) | 0.95 |
| ATAGGTGCATGGACCGGTTTTCCCGGTAATCCGTATTTGTC (site ATAGGTGCTGA) | 2.7 |
| ATAGTTCCATGGACCGGTTTTCCCGGTAATCCGTATTTGGA (site ATAGTTCCTTC) | 0.223 |
| ATATATACATGGACCGGTTTTCCCGGTAATCCGTATTTGAC (site ATATATACTGT) | 2.65 |
| ATATATACATGGACCGGTTTTCCCGGTAATCCGTATTTGAC (site ATCTATACTGT) | 0.727 |
| ATATATACATGGACCGGTTTTCCCGGTAATCCGTATTTGAC (site ATGTATACTGT) | 1.62 |
| ATATATACATGGACCGGTTTTCCCGGTAATCCGTATTTGAC (site ATTTATACTGT) | 0.227 |
| ATATCAACATGGACCGGTTTTCCCGGTAATCCGTATTTGTA (site ATATCAACTTA) | 1.61 |
| ATATGAACATGGACCGGTTTTCCCGGTAATCCGTATTTGAC (site ATATGAACTGT) | 2.9 |
| ATATTTGCATGGACCGGTTTTCCCGGTAATCCGTATTTGAC (site ATATTTGCTGT) | 2.1 |
| ATCACACCATGGACCGGTTTTCCCGGTAATCCGTATTTGTC (site ATCACACCTGA) | 0 |
| ATCACAGCATGGACCGGTTTTCCCGGTAATCCGTATTTGGG (site ATCACAGCTCC) | 0.00407 |
| ATCACCTCATGGACCGGTTTTCCCGGTAATCCGTATTTGCT (site ATCACCTCTAG) | 2.75 |
| ATCCAAACATGGACCGGTTTTCCCGGTAATCCGTATTTGAG (site ATCCAAACTCT) | 1.6 |
| ATCCAAACATGGACCGGTTTTCCCGGTAATCCGTATTTGAG (site ATCCAACCTCT) | 0.01 |
| ATCCAAACATGGACCGGTTTTCCCGGTAATCCGTATTTGAG (site ATCCAAGCTCT) | 0.432 |
| ATCCAAACATGGACCGGTTTTCCCGGTAATCCGTATTTGAG (site ATCCAATCTCT) | 0.352 |
| ATCCAACCATGGACCGGTTTTCCCGGTAATCCGTATTTGAG (site ATCCAAACTCT) | 0.0118 |

| Sequence | recombinant UMI read abundance (log10) |
| --- | --- |
| ATCCAACCATGGACCGGTTTTCCCGGTAATCCGTATTTGAG (site ATCCAACCTCT) | 0 |
| ATCCAACCATGGACCGGTTTTCCCGGTAATCCGTATTTGAG (site ATCCAAGCTCT) | 0.133 |
| ATCCAACCATGGACCGGTTTTCCCGGTAATCCGTATTTGAG (site ATCCAATCTCT) | 0.257 |
| ATCCAGGCATGGACCGGTTTTCCCGGTAATCCGTATTTGTG (site ATCCAGGCTCA) | 0.328 |
| ATCCCGGCATGGACCGGTTTTCCCGGTAATCCGTATTTGGG (site ATCCCGGCTCC) | 0.00576 |
| ATCCCTACATGGACCGGTTTTCCCGGTAATCCGTATTTGCA (site ATCCCTACTTG) | 1.81 |
| ATCCCTGCATGGACCGGTTTTCCCGGTAATCCGTATTTGTG (site ATCCCTGCTCA) | 0.13 |
| ATCCCTTCATGGACCGGTTTTCCCGGTAATCCGTATTTGTG (site ATCCCTTCTCA) | 0.0697 |
| ATCCGTCCATGGACCGGTTTTCCCGGTAATCCGTATTTGAC (site ATCCGTCCTGT) | 0.00623 |
| ATCCGTCCATGGACCGGTTTTCCCGGTAATCCGTATTTGAT (site AACCGTCCTAT) | 0.00762 |
| ATCCGTCCATGGACCGGTTTTCCCGGTAATCCGTATTTGAT (site ACCCGTCCTAT) | 0.0678 |
| ATCCGTCCATGGACCGGTTTTCCCGGTAATCCGTATTTGAT (site AGCCGTCCTAT) | 0.00385 |
| ATCCGTCCATGGACCGGTTTTCCCGGTAATCCGTATTTGAT (site ATCCGTCCTAT) | 0.0236 |
| ATCCTGACATGGACCGGTTTTCCCGGTAATCCGTATTTGAA (site ATCCTGACTTT) | 0.419 |
| ATCCTGGCATGGACCGGTTTTCCCGGTAATCCGTATTTGAA (site ATCCTGGCTTT) | 1.24 |
| ATCGAAGCATGGACCGGTTTTCCCGGTAATCCGTATTTGAG (site ATCAAAGCTCT) | 2.12 |
| ATCGAAGCATGGACCGGTTTTCCCGGTAATCCGTATTTGAG (site ATCCAAGCTCT) | 0.355 |
| ATCGAAGCATGGACCGGTTTTCCCGGTAATCCGTATTTGAG (site ATCGAAGCTCT) | 2.1 |
| ATCGAAGCATGGACCGGTTTTCCCGGTAATCCGTATTTGAG (site ATCTAAGCTCT) | 0.58 |

Reference: the supplement of paper PMC11208160
